Earlier results as cited in patent publication US11147307B2, “Flavor capsules for smoking articles” (PHILIP MORRIS PRODUCTS S.A., priority 2015, dated 2021).

In the case of OC[C@@H](O)[C@@H](O[C@H]1O[C@H](CO)[C@@H](O)[C@H](O)[C@H]1O)[C@H](O)[C@@H](O)CO [maltitol], the solubility in water is listed as “about 200 g/100 ml”.
